ChEMBL document CHEMBL5214881, “Squaric acid analogues in medicinal chemistry” (Eur J Med Chem, 2021)
In brackets after ≈: the same amount, converted by molar mass.

Columns and labels:
[1] = tested on: Urinary bladder; assay: Inhibition of KCL-induced contraction in rat urinary bladder; format: functional, tissue-based; details: Urinary bladder smooth muscle
[2] = molecular target: T1, C-X-C chemokine receptor type 1 (Homo sapiens, UniProt P25024); assay: Binding affinity to human CXCR1 assessed as dissociation constant incubated for 6 to 24 hrs by radioligand binding assay
T1 sequence (P25024 whole entry): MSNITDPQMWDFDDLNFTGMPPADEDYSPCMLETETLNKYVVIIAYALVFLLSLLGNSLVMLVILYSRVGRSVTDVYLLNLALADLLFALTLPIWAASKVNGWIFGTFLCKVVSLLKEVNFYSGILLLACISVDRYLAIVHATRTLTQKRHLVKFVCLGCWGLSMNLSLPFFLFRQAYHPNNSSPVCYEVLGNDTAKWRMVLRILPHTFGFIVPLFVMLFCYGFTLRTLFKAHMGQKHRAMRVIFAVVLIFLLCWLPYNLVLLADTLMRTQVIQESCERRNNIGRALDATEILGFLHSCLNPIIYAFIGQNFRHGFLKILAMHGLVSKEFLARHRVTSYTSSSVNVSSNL

[3] = molecular target: T2, C-X-C chemokine receptor type 2 (Homo sapiens, UniProt P25025); assay: Binding affinity to human CXCR2 assessed as dissociation constant incubated for 6 to 24 hrs by radioligand binding assay
T2 sequence (P25025 whole entry): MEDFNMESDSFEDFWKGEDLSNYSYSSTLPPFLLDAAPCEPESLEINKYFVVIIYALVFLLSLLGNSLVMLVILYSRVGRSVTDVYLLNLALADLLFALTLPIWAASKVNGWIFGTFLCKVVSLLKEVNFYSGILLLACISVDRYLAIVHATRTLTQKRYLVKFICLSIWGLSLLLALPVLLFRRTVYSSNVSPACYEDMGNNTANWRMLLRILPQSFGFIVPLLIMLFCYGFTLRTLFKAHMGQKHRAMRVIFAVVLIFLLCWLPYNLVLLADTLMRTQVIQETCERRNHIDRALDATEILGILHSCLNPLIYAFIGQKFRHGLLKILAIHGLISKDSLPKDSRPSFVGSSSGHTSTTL

[4] = molecular target: T1, C-X-C chemokine receptor type 1; assay: Inhibition of human CXCR1
[5] = tested on: Leishmania infantum; assay: Antileishmanial activity against promastigote stage of Leishmania infantum MCAN/ES/2001/UCM-10 incubated for 72 hrs by Neubauer haemocytometric chamber analysis; format: functional, organism-based; details: MCAN/ES/2001/UCM-10, 72 h
[6] = tested on: Leishmania braziliensis; assay: Antileishmanial activity against promastigote stage of Leishmania braziliensis MHOM/BR/1975/M2904 incubated for 72 hrs by Neubauer haemocytometric chamber analysis; format: functional, organism-based; details: MHOM/BR/1975/M2904, 72 h
[7] = tested on: Leishmania donovani; assay: Antileishmanial activity against promastigote stage of Leishmania donovani MHOM/PE/84/LC26 incubated for 72 hrs by Neubauer haemocytometric chamber analysis; format: functional, organism-based; details: MHOM/PE/84/LC26, 72 h
[8] = tested on: HeLa; assay: Cytotoxicity against human HeLa cells assessed as reduction in cell viability incubated for 24 hrs by MTT assay; format: functional, cell-based
[9] = molecular target: Acetylcholinesterase (Homo sapiens, UniProt P22303); assay: Inhibition of human AchE by spectrophotometric analysis
[10] = molecular target: Cholinesterase (Homo sapiens, UniProt P06276); assay: Inhibition of human BchE by spectrophotometric analysis
[11] = Inhibition of Yersinia pestis PTP
[12] = molecular target: T3, Type-2 angiotensin II receptor (Homo sapiens, UniProt P50052); assay: Inhibition of Angiotensin 2 binding to Angiotensin 2 receptor (unknown origin)
T3 sequence (P50052 whole entry): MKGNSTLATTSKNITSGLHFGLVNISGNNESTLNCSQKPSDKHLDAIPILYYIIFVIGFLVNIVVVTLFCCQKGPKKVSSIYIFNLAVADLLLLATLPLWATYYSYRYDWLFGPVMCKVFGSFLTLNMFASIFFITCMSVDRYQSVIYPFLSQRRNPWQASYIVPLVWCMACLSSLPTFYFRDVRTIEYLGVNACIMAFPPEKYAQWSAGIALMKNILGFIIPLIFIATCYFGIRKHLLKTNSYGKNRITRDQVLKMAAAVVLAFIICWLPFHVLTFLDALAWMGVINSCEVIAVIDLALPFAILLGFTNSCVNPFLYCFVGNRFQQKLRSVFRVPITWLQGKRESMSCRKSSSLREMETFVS

[13] = tested on: Helicobacter pylori; assay: Antibacterial activity against Helicobacter pylori assessed as bacterial growth inhibition; format: functional
[14] = molecular target: T4, Interstitial collagenase (Homo sapiens, UniProt P03956); assay: Inhibition of MMP-1 (unknown origin) using DnpPro-Cha-Gly-Cys(Me)-His-Ala-Lys(Nma)-NH2 as substrate by fluorescence spectroscopy
T4 sequence (P03956 whole entry): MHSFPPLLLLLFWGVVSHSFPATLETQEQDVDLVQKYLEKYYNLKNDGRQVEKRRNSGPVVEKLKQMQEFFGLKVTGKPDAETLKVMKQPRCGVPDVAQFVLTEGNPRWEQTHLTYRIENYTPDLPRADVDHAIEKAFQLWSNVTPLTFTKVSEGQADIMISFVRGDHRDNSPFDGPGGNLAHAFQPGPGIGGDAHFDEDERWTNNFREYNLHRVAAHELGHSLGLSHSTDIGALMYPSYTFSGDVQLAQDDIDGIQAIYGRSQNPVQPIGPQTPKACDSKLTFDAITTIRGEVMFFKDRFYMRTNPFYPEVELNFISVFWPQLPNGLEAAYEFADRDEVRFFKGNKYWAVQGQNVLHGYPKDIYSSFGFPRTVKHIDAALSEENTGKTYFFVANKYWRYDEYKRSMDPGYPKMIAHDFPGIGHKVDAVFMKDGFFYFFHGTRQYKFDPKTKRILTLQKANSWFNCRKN

[15] = Dissociation constant, pKa of the compound; format: physicochemical
[16] = Toxicity in Swiss albino mouse assessed as lethality pretreated for 30 mins followed by NMDA stimulation and measured after 30 mins; details: in vivo, 1 h, time 60 min
[17] = molecular target: Glutamate [NMDA] receptor; assay: Binding affinity to NMDA receptor (unknown origin); format: protein-complex assay, Homo sapiens
[18] = molecular target: Glutamate [NMDA] receptor; assay: Binding affinity to TCP-stimulated NMDA (unknown origin); format: protein-complex assay, Homo sapiens

Acetylcholinesterase, sequence (P22303 whole entry): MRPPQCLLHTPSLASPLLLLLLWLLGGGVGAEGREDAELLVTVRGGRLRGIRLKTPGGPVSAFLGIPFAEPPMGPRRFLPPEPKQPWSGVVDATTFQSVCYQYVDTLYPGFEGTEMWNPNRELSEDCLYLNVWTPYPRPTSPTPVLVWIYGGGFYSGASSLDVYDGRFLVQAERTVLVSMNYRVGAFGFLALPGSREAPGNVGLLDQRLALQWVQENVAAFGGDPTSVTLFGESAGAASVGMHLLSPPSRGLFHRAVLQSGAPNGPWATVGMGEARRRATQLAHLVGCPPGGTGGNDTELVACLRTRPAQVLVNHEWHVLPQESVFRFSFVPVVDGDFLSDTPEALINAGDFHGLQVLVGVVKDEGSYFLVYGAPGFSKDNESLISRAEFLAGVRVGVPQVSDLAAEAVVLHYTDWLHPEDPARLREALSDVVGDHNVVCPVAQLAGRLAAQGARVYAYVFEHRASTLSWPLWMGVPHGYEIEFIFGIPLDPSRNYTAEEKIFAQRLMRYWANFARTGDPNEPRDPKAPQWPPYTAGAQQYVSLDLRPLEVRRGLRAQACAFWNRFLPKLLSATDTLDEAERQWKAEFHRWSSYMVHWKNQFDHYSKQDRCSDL
Cholinesterase, sequence (P06276 whole entry): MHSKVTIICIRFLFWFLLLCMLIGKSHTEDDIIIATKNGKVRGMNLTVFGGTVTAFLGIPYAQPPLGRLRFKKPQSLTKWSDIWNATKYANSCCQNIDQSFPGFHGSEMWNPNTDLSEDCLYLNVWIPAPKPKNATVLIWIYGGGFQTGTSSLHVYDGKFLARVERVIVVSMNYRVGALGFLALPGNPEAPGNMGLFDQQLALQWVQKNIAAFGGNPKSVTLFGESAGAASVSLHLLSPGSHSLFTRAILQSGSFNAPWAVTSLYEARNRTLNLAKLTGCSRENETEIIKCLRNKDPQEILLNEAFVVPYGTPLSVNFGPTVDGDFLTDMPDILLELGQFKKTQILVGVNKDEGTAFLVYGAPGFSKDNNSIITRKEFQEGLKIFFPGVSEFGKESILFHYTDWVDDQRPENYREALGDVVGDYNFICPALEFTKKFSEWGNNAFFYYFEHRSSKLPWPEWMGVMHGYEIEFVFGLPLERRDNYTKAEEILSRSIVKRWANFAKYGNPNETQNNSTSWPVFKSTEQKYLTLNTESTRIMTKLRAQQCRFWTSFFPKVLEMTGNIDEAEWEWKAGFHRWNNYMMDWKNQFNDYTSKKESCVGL

CCc1cc(C#N)ccc1Nc1c(N[C@H](C)C(C)(C)C)c(=O)c1=O
IC50 [1]: 90 nM

CC[C@@H](Nc1c(Nc2cccc(C(=O)N(C)C)c2O)c(=O)c1=O)c1ccco1
Kd [2]: 3.9 nM
Kd [3]: 0.049 nM

CCC(CC)Nc1c(Nc2cccc(C(=O)N(C)C)c2O)c(=O)c1=O
IC50 [4]: 15 nM

O=c1c(Nc2ccccc2)c(Nc2ccc([N+](=O)[O-])cc2O)c1=O
IC50 [4]: 36 nM

CC[C@@H](Nc1c(Nc2cccc(C(=O)N(C)C)c2O)c(=O)c1=O)c1ccccc1
IC50 [4]: 6.8 nM

CCCCNc1c(N(C)CCCN(C)C)c(=O)c1=O
IC50 [5]: 18000 nM
IC50 [6]: 17300 nM

O=c1c(NCc2ccccc2)c(NC2CCN(Cc3ccccc3)CC2)c1=O
IC50 [7]: 17900 nM

COc1c(Nc2ccc3ccccc3c2-c2c(O)ccc3ccccc23)c(=O)c1=O
IC50 [8]: 46700 nM

O=c1c(NCCCCCCCc2c3c(nc4ccccc24)CCCC3)c(NCCCCCCCc2c3c(nc4ccccc24)CCCC3)c1=O
IC50 [9]: 13 nM
IC50 [10]: 21 nM

COc1c(Nc2ccc3c4c(cccc24)-c2ccccc2-3)c(=O)c1=O
IC50 [8]: 880 nM

O=c1c(O)c(-c2ccc([N+](=O)[O-])cc2)c1=O
IC50 [11]: 120000 nM

O=c1c(O)c(-c2ccccc2-c2ccc(CNc3cc(C(F)(F)F)cc4c3CCCC4)cc2)c1=O
IC50 [12]: 25 nM

O=c1c(NC/C=C\COc2cc(CN3CCCCC3)cs2)c(NCCF)c1=O
MIC [13]: 1.56 µg/mL (≈ 3.83 µM)

CC[C@H](C)[C@H](Nc1c(N(C)O)c(=S)c1=O)C(=O)N[C@@H](Cc1ccccc1)C(=O)NC
IC50 [14]: 15000 nM

O=c1c(NCCCCc2c3c(nc4cc(Cl)ccc24)CCCC3)c(NCCCCc2c3c(nc4ccc(Cl)cc24)CCCC3)c1=O
IC50 [9]: 2 nM
IC50 [10]: 110 nM

Nc1nc2c(ncn2[C@@H]2O[C@@H]3CNc4c(c(=O)c4=O)N[C@H]3[C@H]2O)c(=O)[nH]1
pKa [15]: 2.3

CCCCCCCCCCCCCCC(C)Nc1c(NCC[N+](C)(C)C)c(=O)c1=O (configuration not stated)
IC50 [5]: 16300 nM

O=c1c(O)c(-c2ccc3ccccc3c2)c1=O
IC50 [11]: 40000 nM

Nc1c(NCCP(=O)(O)O)c(=O)c1=O
ED50 [16]: 29 mg/kg
IC50 [17]: 470 nM

O=c1c2c(c1=O)N(CCP(=O)(O)O)CCCN2 [PERZINFOTEL]
IC50 [18]: 7600 nM
ED50 [16]: 2.1 mg/kg
IC50 [17]: 30 nM
